# Source: patent US5945539A, “Oxazole derivatives and use thereof” (Japan Tobacco, Inc., priority 1994, dated 1999)
# pIC50: −log10 of the molar value. Like-named read-outs stand apart in the source and are kept apart here.
# Legend:
# cyclooxygenase-2 (COX-2) = biological target: T1, cyclooxygenase-2 (COX-2) (Ovis aries, UniProt P79208); assay: inhibitory activity on cyclooxygenase-2 (Experimental Example 1-1, sheep placenta solubilized fraction); type: biochemical; conditions: for inhibition at 100 µM: sheep placenta COX-2, inhibition at 100 μM test compound; for pIC50: sheep placenta COX-2, pH 8, 24° C.
# T1 sequence (P79208 17-603): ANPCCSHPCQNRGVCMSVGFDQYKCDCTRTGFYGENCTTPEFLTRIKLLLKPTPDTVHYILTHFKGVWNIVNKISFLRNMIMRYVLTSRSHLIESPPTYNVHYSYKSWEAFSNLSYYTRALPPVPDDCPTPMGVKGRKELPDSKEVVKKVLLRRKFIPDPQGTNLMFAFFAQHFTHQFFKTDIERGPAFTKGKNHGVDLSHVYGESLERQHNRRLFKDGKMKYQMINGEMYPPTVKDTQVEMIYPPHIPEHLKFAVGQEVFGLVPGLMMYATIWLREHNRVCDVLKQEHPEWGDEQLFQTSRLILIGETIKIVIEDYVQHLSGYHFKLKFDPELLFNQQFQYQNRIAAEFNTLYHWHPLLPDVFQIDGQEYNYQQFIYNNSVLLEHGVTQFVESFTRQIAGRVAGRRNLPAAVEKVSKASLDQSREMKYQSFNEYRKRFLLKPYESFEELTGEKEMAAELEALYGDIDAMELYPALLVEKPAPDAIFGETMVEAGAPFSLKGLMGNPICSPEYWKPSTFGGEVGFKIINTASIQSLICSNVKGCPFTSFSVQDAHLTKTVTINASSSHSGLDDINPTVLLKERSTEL
# Protocol: (§1) That is, a test sample (20 μl), an enzyme solution (20 μl) and distilled water (10 μl) were added to 100 mM Tris-HCl buffer (pH 8, 140 μl) containing hematin (2 μM) and tryptophan (5 mM), and the mixture was thoroughly stirred, which was followed by preincubation at 24° C. for 5 minutes. Then, a ^1 4 C arachidonic acid solution (10 μl) was added and the mixture was reacted at 24° C., whereafter a solution (40 μl) of ethyl ether/methanol/1 M citric acid (30/4/1) ice-cooled to -20° C. was added to stop the reaction.
# cyclooxygenase-1 (COX-1) [1] = biological target: T2, cyclooxygenase-1 (COX-1) (Ovis aries, UniProt P05979); assay: inhibitory activity on cyclooxygenase-1 (Experimental Example 1-1, sheep seminal vesicle microsome fraction); type: biochemical; conditions: for inhibition at 100 µM: sheep seminal vesicle COX-1, inhibition at 100 μM test compound; for pIC50: sheep seminal vesicle COX-1, pH 8, 24° C.
# T2 sequence (P05979 25-600): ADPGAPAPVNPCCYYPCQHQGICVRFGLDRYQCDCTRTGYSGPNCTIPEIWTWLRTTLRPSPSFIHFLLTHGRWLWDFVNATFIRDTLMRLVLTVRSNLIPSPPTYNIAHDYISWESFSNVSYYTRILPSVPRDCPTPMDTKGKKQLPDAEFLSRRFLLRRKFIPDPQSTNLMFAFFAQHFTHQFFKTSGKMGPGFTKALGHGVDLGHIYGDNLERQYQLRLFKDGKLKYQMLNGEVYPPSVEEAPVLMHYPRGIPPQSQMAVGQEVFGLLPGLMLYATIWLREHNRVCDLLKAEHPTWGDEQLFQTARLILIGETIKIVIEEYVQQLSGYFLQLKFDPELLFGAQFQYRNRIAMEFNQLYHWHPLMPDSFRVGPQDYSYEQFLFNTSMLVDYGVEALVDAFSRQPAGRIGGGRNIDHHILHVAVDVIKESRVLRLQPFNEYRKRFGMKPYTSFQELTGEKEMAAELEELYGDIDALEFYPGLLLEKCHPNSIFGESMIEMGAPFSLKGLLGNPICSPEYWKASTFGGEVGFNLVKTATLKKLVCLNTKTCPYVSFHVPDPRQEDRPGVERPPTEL
# Protocol: as §1
# cyclooxygenase-1 (COX-1) [2] = biological target: T3, cyclooxygenase-1 (COX-1) (Homo sapiens, UniProt P23219); assay: inhibitory activity on cyclooxygenase-1 (Experimental Example 1-2, enzyme prepared from human platelets); type: biochemical; conditions: COX-1 prepared from human platelets
# T3 construct: an enzyme prepared from human platelets; from tissue; host or cells: human platelets
# T3 sequence (P23219 24-599): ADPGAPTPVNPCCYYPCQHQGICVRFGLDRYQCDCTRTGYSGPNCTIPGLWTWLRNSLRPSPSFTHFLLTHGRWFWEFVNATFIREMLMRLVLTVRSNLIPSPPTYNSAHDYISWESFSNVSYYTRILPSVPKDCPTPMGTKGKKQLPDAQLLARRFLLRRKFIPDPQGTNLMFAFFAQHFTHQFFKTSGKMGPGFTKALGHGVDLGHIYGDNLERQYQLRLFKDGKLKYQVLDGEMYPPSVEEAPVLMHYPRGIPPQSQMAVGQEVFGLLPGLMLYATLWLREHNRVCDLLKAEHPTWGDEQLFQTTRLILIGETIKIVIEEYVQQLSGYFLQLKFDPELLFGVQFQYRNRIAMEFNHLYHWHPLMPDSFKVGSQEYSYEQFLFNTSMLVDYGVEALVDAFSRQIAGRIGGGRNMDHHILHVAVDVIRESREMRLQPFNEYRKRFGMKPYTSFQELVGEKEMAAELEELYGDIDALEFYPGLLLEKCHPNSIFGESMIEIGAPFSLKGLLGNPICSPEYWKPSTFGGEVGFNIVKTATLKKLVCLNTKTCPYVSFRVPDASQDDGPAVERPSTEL
# Protocol: as §1
# [3] = biological target: T4, human cyclooxygenase-2 (COX-2) (Homo sapiens, UniProt P35354); assay: inhibitory activity on cyclooxygenase-2 (Experimental Example 1-2, human COX-2 expressed by yeast); type: biochemical
# T4 construct: made in house
# T4 sequence (P35354 18-604): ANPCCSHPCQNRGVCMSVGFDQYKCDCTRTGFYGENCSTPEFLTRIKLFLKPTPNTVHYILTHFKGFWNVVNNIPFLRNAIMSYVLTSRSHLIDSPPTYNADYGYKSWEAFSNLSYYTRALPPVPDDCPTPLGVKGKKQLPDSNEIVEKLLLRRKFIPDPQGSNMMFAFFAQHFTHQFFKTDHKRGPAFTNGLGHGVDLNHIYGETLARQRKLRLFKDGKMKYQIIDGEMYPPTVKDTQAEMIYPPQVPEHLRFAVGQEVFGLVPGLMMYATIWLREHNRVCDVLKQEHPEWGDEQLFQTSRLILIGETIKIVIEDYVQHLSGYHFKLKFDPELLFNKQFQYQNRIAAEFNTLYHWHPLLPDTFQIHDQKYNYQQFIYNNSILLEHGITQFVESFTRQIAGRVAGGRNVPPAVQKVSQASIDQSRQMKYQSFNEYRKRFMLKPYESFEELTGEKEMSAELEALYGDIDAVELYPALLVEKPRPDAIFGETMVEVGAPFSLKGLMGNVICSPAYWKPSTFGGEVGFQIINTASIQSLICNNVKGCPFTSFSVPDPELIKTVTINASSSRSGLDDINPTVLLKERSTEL
# Protocol: as §1
# [4] = effects on gastric ulcer formation in rats (Experimental Example 3); parameters: species or system male Donryu rats; conditions: rat, in vivo
# Protocol: A test compound (100 mg/kg) was orally administered (10 ml/kg) to male Donryu rats. Six hours later, the stomach of the rats was exposed and fixed with 0.1% formalin. The stomach was opened and the degree of ulcer formation was evaluated.
# [5] = tested on: carrageenin-induced paw edema; assay: effects on carrageenin-induced paw edema in rats (Experimental Example 2); type: in vivo, male Donryu rats; conditions: Rattus norvegicus, po, 3 h
# Protocol: Carrageenin (1%, 0.05 ml) dissolved in physiological saline was subcutaneously injected to the left hind paw of male Donryu rats to induce paw edema. The degree of paw edema was evaluated by measuring the volume of the paw 3 hours after carrageenin administration. […] Inhibitory activity was expressed by the dose (ED30) of the test compound necessary for inhibiting by 30% relative to the control group.
inhibition at 100 µM (cyclooxygenase-1 (COX-1) [1]),pIC50 (cyclooxygenase-2 (COX-2)),Structure (SMILES),ED30 [5],further results
7%,–,"Cc1nc(-c2ccco2)c(-c2ccc(S(C)(=O)=O)cc2)o1 [Example 8, 4-(2-furyl)-2-methyl-5-(4-methylsulfonylphenyl)oxazole]",–,inhibition at 100 µM (cyclooxygenase-2 (COX-2)): 7%
57%,4.52,"Cc1nc(-c2ccc(S(C)(=O)=O)cc2)c(-c2ccc(Cl)s2)o1 [10(B), 5-(5-chloro-2-thienyl)-2-methyl-4-(4-methylsulfonylphenyl)oxazole]",–,–
10%,4.10,"Cc1nc(-c2ccc(S(C)(=O)=O)cc2)c(-c2ccc(C)s2)o1 [2(B), 4-(4-methylsulfonylphenyl)-2-methyl-5-(5-methyl-2-thienyl)oxazole]",–,–
14%,4.30,"Cc1nc(-c2cccs2)c(-c2ccc(S(C)(=O)=O)cc2)o1 [11(A), 5-(4-methylsulfonylphenyl)-2-methyl-4-(2-thienyl)oxazole]",9.5 mg/kg,–
6%,–,"Cc1nc(-c2ccc(S(C)(=O)=O)cc2)c(-c2cccs2)o1 [11(B), 4-(4-methylsulfonylphenyl)-2-methyl-5-(2-thienyl)oxazole]",–,inhibition at 100 µM (cyclooxygenase-2 (COX-2)): 2%
5%,5.00,CC1=CCC(c2nc(C)oc2-c2ccc(S(C)(=O)=O)cc2)CC1 (centres unmarked) [Example 5],–,–
2%,–,"Cc1nc(-c2ccsc2)c(-c2ccc(S(C)(=O)=O)cc2)o1 [Example 9, 5-(4-methylsulfonylphenyl)-2-methyl-4-(3-thienyl)oxazole]",–,inhibition at 100 µM (cyclooxygenase-2 (COX-2)): 35%

# The next lines start with the compound.
Structure (SMILES),inhibition at 100 µM (cyclooxygenase-1 (COX-1) [1]),pIC50 (cyclooxygenase-2 (COX-2)),ED30 [5],further results
"Cc1nc(-c2ccc(Cl)s2)c(-c2ccc(S(N)(=O)=O)cc2)o1 [Example 13, 5-(4-Aminosulfonylphenyl)-4-(5-chloro-2-thienyl)-2-methyloxazole]",–,–,–,pIC50 (cyclooxygenase-1 (COX-1) [2]): 6.22; pIC50 [3]: 7.70
"Cc1nc(C2CCCCCC2)c(-c2ccc(S(C)(=O)=O)cc2)o1 [Example 7, 4-cycloheptyl-2-methyl-5-(4-methylsulfonylphenyl)oxazole]",–,–,–,pIC50 (cyclooxygenase-1 (COX-1) [1]): 5.70
"Cc1nc(-c2ccc(Cl)s2)c(-c2ccc(S(C)(=O)=O)cc2)o1 [10(A), 4-(5-chloro-2-thienyl)-2-methyl-5-(4-methylsulfonylphenyl)oxazole]",13%,6.70,5.4 mg/kg,pIC50 (cyclooxygenase-1 (COX-1) [2]): 4.90; TD50 at 6 h ([4]; po): > 100 mg/kg; pIC50 [3]: 7.52
"CS(=O)(=O)c1ccc(-c2oc(-c3ccccc3)nc2C2CCCCC2)cc1 [Example 12, 2-phenyl-4-cyclohexyl-5-(4-methylsulfonylphenyl)oxazole, reference compound]",–,–,–,inhibition at 100 µM (cyclooxygenase-2 (COX-2)): 16%; pIC50 (cyclooxygenase-1 (COX-1) [1]): < 4.00
"Cc1nc(C2CCCCC2)c(-c2ccc(S(C)(=O)=O)cc2)o1 [Example 1, 4-Cyclohexyl-2-methyl-5-(4-methylsulfonylphenyl)oxazole]",11%,–,5.4 mg/kg,TD50 at 6 h ([4]; po): > 100 mg/kg
"Cc1nc(C2CCCC2)c(-c2ccc(S(C)(=O)=O)cc2)o1 [Example 6, 4-cyclopentyl-2-methyl-5-(4-methylsulfonylphenyl)oxazole]",–,–,–,inhibition at 100 µM (cyclooxygenase-2 (COX-2)): 18%; pIC50 (cyclooxygenase-1 (COX-1) [1]): 4.30
"COc1ccc2c(c1)c(CC(=O)O)c(C)n2C(=O)c1ccc(Cl)cc1 [indomethacin, reference compound]",–,–,2.9 mg/kg,"TD50 at 6 h ([4]; oral, stomach examined six hours later, read-out: gastric ulcer formation in rats): 10 mg/kg"
"Cc1nc(C2CCC(C)CC2)c(-c2ccc(S(C)(=O)=O)cc2)o1 (centres unmarked) [Example 4, 5-(4-methylsulfonylphenyl)-2-methyl-4-(4-methylcyclohexyl)oxazole]",26%,5.40,–,pIC50 (cyclooxygenase-1 (COX-1) [2]): < 4.00
"Cc1nc(C2CCCCC2)c(-c2ccc(S(N)(=O)=O)cc2)o1 [Example 14, 5-(4-Aminosulfonylphenyl)-4-cyclohexyl-2-methyloxazole]",–,5.82,4.5 mg/kg,pIC50 (cyclooxygenase-1 (COX-1) [1]): < 4.00; TD50 at 6 h ([4]; po): > 100 mg/kg; pIC50 [3]: 7.15
"CCc1nc(C2CCCCC2)c(-c2ccc(S(C)(=O)=O)cc2)o1 [Example 3, 4-Cyclohexyl-2-ethyl-5-(4-methylsulfonylphenyl)oxazole]",18%,> 6.00,–,–
"CNS(=O)(=O)c1ccc(-c2oc(C)nc2C2CCCCC2)cc1 [Example 15, 4-Cyclohexyl-2-methyl-5-(4-methylaminosulfonylphenyl)oxazole]",–,–,–,pIC50 [3]: 5.40
"Cc1nc(-c2ccc(C)s2)c(-c2ccc(S(C)(=O)=O)cc2)o1 [2(A), 5-(4-methylsulfonylphenyl)-2-methyl-4-(5-methyl-2-thienyl)oxazole]",–,6.40,10.8 mg/kg,pIC50 (cyclooxygenase-1 (COX-1) [2]): 4.32; pIC50 (cyclooxygenase-1 (COX-1) [1]): 4.30; TD50 at 6 h ([4]; po): > 100 mg/kg; pIC50 [3]: 7.40
